{
  "source": "patent EP1586313A1",
  "about": "“Pharmaceutical composition with metoclopramide and process for its preparation” (The Jordanian Pharmaceutical Manufacturing Co. Ltd., priority 2004, dated 2005)",
  "origin": "cited, not measured here",
  "settings": "reportedly",
  "data": [
    {"smiles": "CCN(CC)CCNC(=O)c1cc(Cl)c(N)cc1OC.Cl.O", "note": "[metoclopramide, 4-amino-5-chloro-N-(2-diethylaminoethyl)-2-methoxybenzamide hydrochloride monohydrate]", "values": [
      {"measurement": "peak plasma metoclopramide concentrations associated with metoclopramide induced akathisia", "value": "greater than 120 ng/ml"}
    ]}
  ]
}
